Laboratory results from publication PMC12645191, “Dicarboxylate and dicarboxylic acid appended supramolecular self-associating amphiphiles as antimicrobial agents against high priority bacterial pathogens” (Organic & Biomolecular Chemistry, 2025).
“And” between values parts separate entries of the source, which are not always exact repeats. Equal entries are not always repeated.

How the values were obtained:
[1] = protein binding in human plasma by equilibrium dialysis; format: in vitro ADME
Procedure: Metabolic stability was assessed in mouse and rat liver microsomes. […] A plasma protein binding assay was performed to assess the extent of compound binding to plasma proteins. This is key as only unbound compound is free to distribute and exert a pharmacological effect. […] To assess the potential for this sub-class of SSAs to be developed as drugs for oral administration, Caco-2 permeability assays were also performed, as a cellular model indicative of human intestinal permeability. […] The […] MS/MS analysis. Samples were analysed using a Shimadzu liquid chromatography system coupled to a Triple Quad 6500+ mass spectrometry (AB Inc.) Separation of compounds was achieved using an HSS T3 column (50 x 2.1 mm) at a temperature of 40 °C and a binary mobile phase gradient at a flow rate of 0.7 mL/min. […] This was ramped to 95 % solvent B at 0.7 minutes, held for 0.5 minutes and then […] returned to initial conditions. Sample analysis was by electrospray ionisation. Protein Binding Measurements in Human Plasma by Using Equilibrium Dialysis Method : The fraction unbound in human plasma (P -KB, Ltd People's hospital of Shandong) were measured using 96-well Equilibrium Dialysis Plate (HTDialysis LLC, Gales Ferry, CT). Human plasma containing 5 μM test compound were dialysed against dialysis buffer (PBS) with initial samples taken to allow for assessment of plasma stability and recovery before the plate was incubated for 6 hours at 37 °C at 5 % CO2. Samples were removed at 6 hours, and all samples […] appropriate analytical internal standard. Samples were centrifuged at 3,220 g for 30 minutes (Eppendorf 5810R) to precipitate protein and enable sampling of supernatant prior to appropriate dilution for liquid chromatography mass -spectrometry (LC-MS/MS) analysis. Samples were analysed using a Shimadzu coupled to a triple Quad 6500 + (AB Inc., Illinois). Separation of analytes was achieved using a Xselect Hss T3 (2.1 x 50 mm) column at a temperature of 40 °C and a binary mobile phase gra dient at a flow rate of 0.8 mL/min. Initial […] formic acid in acetonitrile); this was ramped to 98 % B at 0.5 min, held for 0.4 min and then immediately returned to initial conditions. Sample analysis was by electrospray ionisation in positive ion mode. Bi-directional Permeability in Caco-2 Cell Line: The bi-directional permeability in Caco-2 cell lines was determined by seeding cells onto an HTS Transwell plate. Cells were cultivated for 14-18 days in a cell culture incubator at 37 °C, 5 % CO2, 95 % relative humidity. Cell culture medium was replaced every other day. To assess monolayer integrity the transepithelial electrical resistance (TEER) across the monolayer was measured using Millicell Epithelial volt-ohm meter prior to assay and Lucifer yellow (LY) fluorescence measurement post-assay. Test and control compounds were prepared in DMSO and diluted in Hank's Balanced Saline […] Compound was added to the donor compartment of the transwell plate for both apical to basolateral (A>B) and basolateral to apical (B>A) measurements, with blank HBSS being added to the receiver compartment. The transwell plate was then incubated at 37 °C, 5 % CO2 for 2 hours. 5

[2] = quantitative (Q) 1H NMR spectroscopy, proportion of SSA becoming NMR silent (higher-order aggregates); format: physicochemical
Procedure: To confirm the presence of higher order self-associative structures quantitative (Q) ^1H NMR spectroscopy studies were undertaken at 5.6 mM in D2O 5% EtOH. Here the ^1H NMR resonances attributed to the EtOH are used as an internal standard.
Table S1 – Overview of results of the quantitative (Q) 1H NMR studies for 1, 3, 5, 7 and 9
5.0 % EtOH . Values given in % represent the observed proportion of the SSA that has become
Table S2 – Overview of results of the quantitative (Q) 1H NMR studies for 2, 4, 6, 8 and 10
5.0 % EtOH. Values given in % represent the observed proportion of anion and cation that has

[3] = tensiometry: critical aggregate concentration (CAC) and surface tension; format: physicochemical
Procedure: As the (Q) ^1H NMR spectroscopy experiments conducted at 5.6 mM in a D2O 5.0% EtOH solution confirmed the presence of higher-order self-associated structures with solid-like properties, concentration dependent surface tension measurements, obtained through tensiometry, were used to calculate critical aggregate concentration (CAC). Here the CAC is defined as the point at which an increase in SSA concentration no longer decreases surface tension but instead results in the formation of higher-order self-associated structures.

[4] = dynamic light scattering (DLS) of SSA aggregates; format: physicochemical; conditions: 5.6 mM, H2O 5.0% EtOH, 298 K; listed as 10
Procedure: Dynamic light scattering (DLS) and zeta potential measurements in H2O 5.0% EtOH were used to determine the hydrodynamic diameter (dH) and stability of the higher-order SSA aggregates detected by (Q) ^1H NMR spectroscopy at 5.6 mM, Table 1. […] However, we are unable to confidently report a dH for 1 due to the instability of this system, which is supported by a zeta potential value of −26 mV, obtained for this SSA under the same experimental conditions. […] Due to the instability of these systems in the absence of solvent, attempts to further characterise these systems through SEM or AFM are not possible.[48]

[5] = tested on: K. pneumoniae M6; test: inhibition of bacterial growth, OD600 after 20 h; format: cell-based, Klebsiella pneumoniae; conditions: SSA 5.0 mM, 2.5% ethanol, negative = enhanced growth
Procedure: (§1) With the self-associative properties of 1–10 established, the antimicrobial activity of these SSAs were determined against a panel of clinically relevant, high-priority pathogens including: P. aeruginosa PAO1; Klebsiella pneumonia (K. pneumoniae) M6; E. coli NCTC 12923; Acinetobacter baumannii (A. baumannii) ATCC 17978; S. aureus ATCC 9144; Enterococcus faecalis (E. faecalis) NCTC 775; and Enterococcus faecium (E. faecium) NCTC 12204. […] However, it should be noted that the SSA stock solution was prepared in a H2O 5% EtOH solution, to ensure that the SSA aggregates formed were in line with those characterised within the scope of the SSA self-association studies.
(§2) Section 3: Biological methods
(§3) These methods were taken directly from UK Health and Security Office (UKHSA) standard […]
(§4) Preparation of Luria Broth media (LB): Yeast extract (5.0 g), tryptone (10.0 g) and sodium chloride (10.0 g) were dissolved in dH₂O (1.0 L) then divided into bottles and autoclaved.
(§5) Preparation of Luria Broth (LB) agar plates: Agar (6.0 g) was added to LB (400 mL) and autoclaved. Once cool, the LB agar was poured into sterile petri dishes under sterile conditions and allowed to set. LB plates were stored at 4 °C until use.
(§6) Preparation of bacterial plates: Sterile LB agar plates were streaked using streaked using the desired bacteria i) Pseudomonas aeruginosa (P.aeruginosa) PAO1, ii) Klebsiella pneumoniae (K. pneumoniae) M6 iii) E. coli NCTC 12923 and iv) Acinetobacter baumannii (A. baumannii) ATCC 17978 and Gram-positive i) Staphylococcus aureus (S. aureus) ATCC 9144 ii) Enterococcus faecalis (E. faecalis) NCTC 775 and iii) Enterococcus faecium (E. faecium ) NCTC 12204, then incubated at 37 °C overnight.
(§7) Preparation of Inoculum: An initial culture was made up by inoculating LB media (5 mL) with a single colony of bacteria under sterile conditions and incubated at 37 °C with shaking overnight. The following day, overnight bacterial cultures were subcultured into fresh LB medium to a starting OD600 of 0.01.
(§8) Preparation of 96 well microplate for MIC50: The 1:100 cell suspension (150 µL) was dispensed into individual wells under sterile conditions. SSAs (30 µL) were added to the wells to equal a total volume of 180 µL in the wells. Six repeats of each concentration for each SSA were created each plate. The plates were sealed using parafilm, then incubated at 37 °C in a microplate reader for 20 hours. OD600 endpoint data was used to generate growth curves. […]

[6] = tested on: E. coli NCTC 12923; test: inhibition of bacterial growth, OD600 after 20 h; format: cell-based, Escherichia coli; conditions: SSA 5.0 mM, 2.5% ethanol, negative = enhanced growth
Procedure: as §1, §2, §3, §4, §5, §6, §7, §8

[7] = tested on: A. baumannii ATCC 17978; test: inhibition of bacterial growth, OD600 after 20 h; format: cell-based, Acinetobacter baumannii; conditions: SSA 5.0 mM, 2.5% ethanol, negative = enhanced growth, listed as 10
Procedure: as §1, §2, §3, §4, §5, §6, §7, §8

[8] = tested on: S. aureus ATCC 9144; test: inhibition of bacterial growth, OD600 after 20 h; format: cell-based, Staphylococcus aureus; conditions: SSA 5.0 mM, 2.5% ethanol, negative = enhanced growth, listed as 10
Procedure: as §1, §2, §3, §4, §5, §6, §7, §8

[9] = tested on: E. faecalis NCTC 775; test: inhibition of bacterial growth, OD600 after 20 h; format: cell-based, Enterococcus faecalis; conditions: SSA 5.0 mM, 2.5% ethanol, negative = enhanced growth
Procedure: as §1, §2, §3, §4, §5, §6, §7, §8

[10] = tested on: E. faecium NCTC 12204; test: inhibition of bacterial growth, OD600 after 20 h; format: cell-based, Enterococcus faecium; conditions: SSA 5.0 mM, 2.5% ethanol, negative = enhanced growth
Procedure: as §1, §2, §3, §4, §5, §6, §7, §8

[11] = 5.6 mM, D2O 5.0% EtOH, 298 K, listed as 10

SMILES: CC(=O)N1CCN(c2ccc(OCC3COC(Cn4ccnc4)(c4ccc(Cl)cc4Cl)O3)cc2)CC1 (stereo not shown) [Ketoconazole, reference compound]
- remaining at 6 h, 5 µM ([1]; human plasma, 5 µM, 37 °C): 101%
- % Unbound ([1]; human, plasma): 0.86%
- fraction unbound ([1]; human, plasma): 0.0086

SMILES: O=C(O)CC[C@H](NC(=O)Nc1ccc(Br)cc1)C(=O)O [SSA 10]
- (Q) 1H NMR spectroscopy, proportion NMR silent, acid or anion [2, 11]: 38%
- (Q) 1H NMR spectroscopy, proportion NMR silent, cation [2, 11]: 43.6% and 44%
- (Q) 1H NMR, proportion NMR silent, SSA acid or anion ([2]; ~112 mM, DMSO-d6 1.0% DCM): 0%
- (Q) 1H NMR, proportion NMR silent, cation ([2]; ~112 mM, DMSO-d6 1.0% DCM): 0%
- CAC ([3]; H2O 5.0% EtOH, 298 K): 26.00 mM and 26 mM
- ST at CAC ([3]; H2O 5.0% EtOH, 298 K): 41 mN m^−1
- Surface tension at CAC ([3]; H2O/5.0 % EtOH, listed as 10): 41.37 mN/m
- Polydispersity index (%) [4]: 26.0 (± 0.5) %
- dH (DLS intensity distribution peak 1 maxima) [4]: 307 nm
- inhibition at 5000 µM ([5]; Klebsiella pneumoniae, M6, 20 h, read-out: Percentage inhibition of bacterial growth, M6 (K. pneumoniae)): 32%
- Percentage inhibition of bacterial growth, M6 (K. pneumoniae) ([5]; listed as 10): 32%
- inhibition at 5000 µM ([6]; Escherichia coli, NCTC12923, 20 h, read-out: Percentage inhibition of bacterial growth, NCTC 12923 (E. coli)): 67.9%
- Percentage inhibition of bacterial growth, NCTC 12923 (E. coli) ([6]; listed as 10): 68%
- Percentage inhibition of bacterial growth, ATCC 17978 (A. baumannii) [7]: 49.97% and 50%
- Percentage inhibition of bacterial growth, ATCC 9144 (S. aureus) [8]: 17.46% and 17%
- inhibition at 5000 µM ([9]; Enterococcus faecalis, NCTC775, 20 h, read-out: Percentage inhibition of bacterial growth, NCTC 775 (E. faecalis)): 23.1%
- Percentage inhibition of bacterial growth, NCTC 775 (E. faecalis) ([9]; listed as 10): 23%
- inhibition at 5000 µM ([10]; Enterococcus faecium, NCTC12204, 20 h, read-out: Percentage inhibition of bacterial growth, NCTC 12204 (E. faecium)): 34.1%
- Percentage inhibition of bacterial growth, NCTC 12204 (E. faecium) ([10]; listed as 10): 34%
